Results taken from patent US6733986B1, “Method and agent for determining a deaminase enzymatic activity” (Bio Merieux, priority 1997, dated 2004).

Key:
[1] = tested on: strains which belong to the group Proteus; experiment: Example of a gelled medium with O-toluene-sulfonyl-L-tyrosine and iron citrate; assay type: cell-based; conditions: 0.5 g/l with iron citrate at 0.5 g/l in gelled medium; after 18 to 24 hours of incubation
Text: As an example of a gelled medium, O-toluene-sulfonyl-L-tyrosine at 0.5 g/l and iron citrate at 0.5 g/l can be incorporated into the culture medium, in the following medium:
this medium being able to be inoculated with various Gram-negative or Gram-positive microorganisms.

[2] = tested on: bacteria belonging to the group Proteus; experiment: Differentiation of the group Proteus from other bacteria in liquid medium (Example 7); assay type: cell-based; conditions: after 48 hours
Protocol: Two media were prepared according to the usual techniques. […] The composition of the Media III and IV for one liter of final medium is as follows: [table] The pH of the media was adjusted to approximately 7.2. In Medium III, the detection agent for the enzymatic activity such as deaminase activity which was used is the natural amino acid L-histidine, at 1.5 g/l; in Medium IV, the detection agent for the enzymatic activity such as deaminase activity which is used is of [sic] N-toluene-sulfonyl-L-histidine, at 0.5 g/l. The media were distributed into test tubes, in a sterile manner. These two media were inoculated with the 12 bacterial strains described in Example 6. The tubes were incubated for 48 hours at 37° C., and were examined visually after 48 hours according to the following interpretation: the browning of the tube reflects the presence of an enzymatic activity such as deaminase activity, and thus of a bacterium of the group Proteus, the absence of browning signifies the absence of bacteria of the group Proteus.

SMILES	colour of colonies of strains of the group Proteus [1]	differentiation of bacteria of the group Proteus from those not belonging thereto [2]
Cc1ccc(S(=O)(=O)Oc2ccc(C[C@H](N)C(=O)O)cc2)cc1 [Example 2, 4-O-tosyl-L-tyrosine]	brown colonies	–
N[C@@H](Cc1c[nH]cn1)C(=O)O [L-histidine]	–	high sensitivity and specificity
